Patent US6410792B1, “Amide derivatives and methods for using the same as selective neuropeptide Y receptor antagonists” (Bayer Corporation, priority 1997, dated 2002)
pIC50: −log10 of the molar value. Where two headings read alike, the source gives them in different places.

What was measured:
Y2 receptor = molecular target: T1, Y2 receptor (Homo sapiens, UniProt P49146); assay: Y2 receptor binding assay ([125I]PYY, membrane protein); conditions: [125I]PYY binding, membrane protein; read-out: hNPY2 IC50
T1 sequence (P49146 1-381): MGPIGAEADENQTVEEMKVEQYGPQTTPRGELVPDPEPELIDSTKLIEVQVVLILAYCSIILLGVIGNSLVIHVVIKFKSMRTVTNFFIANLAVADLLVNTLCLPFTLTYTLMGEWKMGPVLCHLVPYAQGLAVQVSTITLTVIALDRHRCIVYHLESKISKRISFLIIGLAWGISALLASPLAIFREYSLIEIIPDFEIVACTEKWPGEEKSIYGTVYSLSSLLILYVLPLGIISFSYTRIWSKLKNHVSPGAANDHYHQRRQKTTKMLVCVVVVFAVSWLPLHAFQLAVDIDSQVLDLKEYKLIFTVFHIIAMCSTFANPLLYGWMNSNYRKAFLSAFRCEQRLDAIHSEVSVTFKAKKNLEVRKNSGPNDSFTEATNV
How it was run: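 Filtration binding with membrane protein and drug dilution, 2 h at room temperature with mixing, radioactivity counted by gamma or scintillation. Y2: 25 pM [125I]PYY in Krebs-Ringer bicarbonate pH 7.4 with 0.01% BSA, nonspecific by 1 μM NPY. Y4/PP1: 50 pM [125I]hPP in HEPES-buffered saline pH 7.4 with protease inhibitors and 0.3% BSA, nonspecific by 1 μM hPP.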

Human NPY5 receptor = molecular target: T2, Human NPY5 receptor (Homo sapiens, UniProt Q15761); assay: Human NPY5 receptor binding assay ([125I]PYY, membrane protein)
T2 sequence (Q15761 1-445): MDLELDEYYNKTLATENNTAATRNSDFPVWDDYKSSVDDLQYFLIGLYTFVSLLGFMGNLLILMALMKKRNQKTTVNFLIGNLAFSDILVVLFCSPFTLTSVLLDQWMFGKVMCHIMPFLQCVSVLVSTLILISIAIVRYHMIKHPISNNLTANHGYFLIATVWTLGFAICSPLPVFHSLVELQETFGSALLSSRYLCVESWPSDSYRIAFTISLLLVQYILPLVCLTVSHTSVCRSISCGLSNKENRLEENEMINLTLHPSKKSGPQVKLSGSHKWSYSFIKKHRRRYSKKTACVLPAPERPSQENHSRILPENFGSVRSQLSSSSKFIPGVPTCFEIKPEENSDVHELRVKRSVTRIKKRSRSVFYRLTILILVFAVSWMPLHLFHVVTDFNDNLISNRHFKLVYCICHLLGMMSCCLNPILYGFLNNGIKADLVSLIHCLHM
How it was run: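 Competition against porcine [125I]PYY (75-100 pM) on receptor membranes, 2 h, room temperature, Tris-based pH 7.4 buffer with BSA and bacitracin. Bound radioactivity after filtration and ice-cold rinse counted by gamma or liquid scintillation; 1 μM PYY defines nonspecific binding.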

[1] = [125I]PYY binding, read-out: hNPY5 IC50

Molecule | pIC50 (Y2 receptor) | pIC50 (Human NPY5 receptor; [1]) | pIC50 (Human NPY5 receptor; hNPY5 IC50, [125I]PYY binding)
CC1(C)CC(C(N)=O)C(C)(C)N1CC(=O)Nc1ccc(C2CCCCC2)cc1 (centres unmarked) [Compound 114, 1-[(4-Cyclohexyl-phenylcarbamoyl)-methyl] 2,2,5,5-tetramethyl-pyrrolidine-3-carboxylic acid amide] | < 5.30 | 5.62 | 
CC(=O)NCC1(c2ccccc2)CCN(CC(=O)Nc2ccc(C(=O)c3ccccc3)cc2)CC1 [Compound 56, 2-[4-(Acetylamino-methyl)-4-phenyl-piperidin-1-yl]-N-(4-benzoyl-phenyl)-acetamide] | < 5.30 | 6.68 | 
CC1CCN(CC(=O)Nc2ccc(C3CCCCC3)cc2)CC1 [Compound 33, N-(4-Cyclohexyl-phenyl)-2-(4-methyl-piperidin-1-yl)-acetamide] | < 5.30 | < 5.00 | 
O=C(CN1CCN(Cc2ccccc2)CC1)Nc1ccc(C2CCCCC2)cc1 [Compound 13, 2-(4-Benzyl-piperazin-1-yl)-N-(4-cyclohexyl-phenyl)-acetamide] | < 5.30 | 5.04 | 
O=C(CN1CCC[C@H]1C(=O)O)Nc1ccc(C2CCCCC2)cc1 [Compound 99, (2S)-1-[(4-Cyclohexyl-phenylcarbamoyl)-methyl]-pyrrolidine-2-carboxylic acid] | < 5.30 | 5.08 | 
CCC(=O)C1(c2ccccc2)CCN(CC(=O)Nc2ccc(C(=O)c3ccccc3)cc2)CC1 [Compound 69, N-(4-Benzoyl-phenyl)-2-(4-phenyl-4-propionyl-piperidin-1-yl)-acetamide] | < 5.30 | 8.52 | 
O=C(CN1CCC(Cc2ccccc2)CC1)Nc1ccc(C(=O)c2ccccc2)cc1 [Compound 38, N-(4-Benzoyl-phenyl)-2-(4 benzyl-piperidin-1-yl)-acetamide] | < 5.30 | 5.07 | 
O=C(CN1CC=C(c2ccc(Cl)cc2)CC1)Nc1ccc(C(=O)c2ccccc2)cc1 [Compound 18, N-(4-Benzoyl-phenyl)-2-[4-(4-chloro-phenyl)-3,6-dihydro-2H-pyridin-1-yl]-acetamide] | < 5.30 | 5.28 | 
COc1ccc(C(=O)C2CCN(CC(=O)Nc3ccc(C(=O)c4ccccc4)cc3)CC2)cc1 [Compound 122, N-(4-Benzoyl-phenyl)-2-[4-(4-methoxy-benzoyl)-piperidin-1-yl]-acetamide] | < 5.30 | 5.00 | 
O=C(CN1CCC(CCC2CCNCC2)CC1)Nc1ccc(C(=O)c2ccccc2)cc1 [Compound 55, n-(4-Benzoyl-phenyl)-2-[4-(2-piperidin-4-ylethyl)-piperidin-1-yl]-acetamide] | < 5.30 | < 5.00 | 
O=C(CN1CCOCC1)Nc1ccc(C(=O)c2ccccc2)cc1 [Compound 6, N-(4-Benzoyl-phenyl)-2-morpholin-4-yl-acetamide] | < 5.30 | 6.10 | 
COC(=O)[C@@H]1CCCN1CC(=O)Nc1ccc(C(=O)c2ccccc2)cc1 [Compound 107, (2S)-1-[(4-Benzoyl-phenylcarbamoyl)-methyl]-pyrrolidine-2-carboxylic acid methyl ester] | < 5.30 | 5.54 | 
(2R,4R)-1-[(4-Cyclohexyl-phenylcarbamoyl)-methyl]-4-hydroxy-pyrrolidine-2-carboxylic acid [Compound 90] | < 5.30 | 5.42 | 
CN(C)C1(C(N)=O)CCN(CC(=O)Nc2ccc(C3CCCCC3)cc2)CC1 [Compound 36, 1-[(4-Cyclohexyl-phenylcarbamoyl)-methyl]-4-dimethylamino-piperidine-4-carboxylic acid amide] | < 5.30 | 6.15 | 
O=C(CN(c1ccccn1)c1ccccn1)Nc1ccc(C(=O)c2ccccc2)cc1 [Compound 22, N-(4-Benzoyl-phenyl)-2-(di-pyridin-2-yl-amino)-acetamide] | < 5.30 | 5.00 | 
O=C(CN1[C@@H](C(=O)O)CC[C@@H]1O)Nc1ccc(C(=O)c2ccccc2)cc1 [Compound 20, (5S,2R)-1-[(4-Benzoyl-phenylcarbamoyl)-methyl]-5-hydroxy-pyrrolidine-2-carboxylic acid] | < 5.30 | 5.12 | 
O=C(CN1CCC[C@@H]1C(=O)O)Nc1ccc(C2CCCCC2)cc1 [Compound 117, (2R)-1-[(4-Cyclohexyl-phenylcarbamoyl)-methyl]-pyrrolidine-2-carboxylic acid] | < 5.30 | 5.52 | 

Molecule | pIC50 (Y2 receptor) | pIC50 (Human NPY5 receptor; [1]) | pIC50 (Human NPY5 receptor; hNPY5 IC50, [125I]PYY binding)
O=C(CNCc1ccccc1)Nc1ccc(C2CCCCC2)cc1 [Compound 11, 2-Benzylamino-N-(4-cyclohexyl-phenyl)-acetamide] | < 5.30 | 5.55 | 
N#CC(c1ccccc1)C1CCN(CC(=O)Nc2ccc(C(=O)c3ccccc3)cc2)CC1 (centres unmarked) [Compound 57, N-(4-Benzoyl-phenyl)-2-[4-(cyano-phenyl-methyl)-piperidin-1-yl]-acetamide] | < 5.30 | 8.30 | 
O=C(CN1CCN(c2ccccc2Cl)CC1)Nc1ccc(C(=O)c2ccccc2)cc1 [Compound 8, N-(4-Benzoyl-phenyl)-2-[4-(2-chloro-phenyl)-piperazin-1-yl]-acetamide] | < 5.30 | 6.02 | 
O=C(CN1CCC(O)(CCCc2ccccc2)CC1)Nc1ccc(C(=O)c2ccccc2)cc1 [Compound 60, N-(4-Benzoyl-phenyl)-2-[4-hydroxy-4-(3-phenyl-propyl)-piperidin-1-yl]-acetamide] | < 5.30 | 5.38 | 
O=C(CN1CCC[C@H]1C(=O)O)Nc1ccc(C(=O)c2ccccc2)cc1 [Compound 110, (2S)-1-[(4-Benzoyl-phenylcarbamoyl)-methyl]-pyrrolidine-2-carboxylic acid] | < 5.30 | 5.06 | 
N-(4-Cyclohexyl-phenyl)-2-[4-hydroxy-4-(3-trifluoromethyl-phenyl)-piperidin-1-yl]-acetamide [Compound 62] | < 5.30 | 6.38 | 
O=C(CN(CCO)c1ccccc1)Nc1ccc(C2CCCCC2)cc1 [Compound 14, N-(4-cyclohexyl-phenyl)-2-[(2-hydroxy-ethyl)-phenyl-amino]-acetamide] | < 5.30 | 5.74 | 
N-(4-Benzoyl-phenyl)-2-(4-benzyl-4-hydroxy-piperidin-1-yl)-acetamide [Compound 111] | < 5.30 | 6.80 | 
CC1CCN(CC(=O)Nc2ccc(C(=O)c3ccccc3)cc2)CC1 [Compound 50, N-(4-Benzoyl-phenyl)-2-(4-methyl-piperidin-1-yl)-acetamide] | < 5.30 | 5.66 | 
COC[C@@H]1CCCN1CC(=O)Nc1ccc(C(=O)c2ccccc2)cc1 [Compound 104, N-(4-Benzoyl-phenyl)-2-(2S-methoxymethyl-pyrrolidin-1-yl)-acetamide] | < 5.30 | 6.31 | 
C=C(C)C1CN(CC(=O)Nc2ccc(C(=O)c3ccccc3)cc2)C(C(=O)O)C1CC(=O)O (centres unmarked) [Compound 120, 1-[(4-Benzoyl-phenylcarbamoyl)-methyl]-3-carboxymethyl-4-isopropenyl-pyrrolidine-2-carboxylic acid] | < 5.30 |  | < 5.00
CC1(C)CCN(CC(=O)Nc2ccc(C3CCCCC3)cc2)CC1 [Compound 34, N-(4-Cyclohexyl-phenyl)-2-(4,4-dimethyl-piperidin-1-yl)-acetamide] | < 5.30 | 5.85 | 
O=C(CN1CCN(c2cccc(Cl)c2)CC1)Nc1ccc(C(=O)c2ccccc2)cc1 [Compound 9] | < 5.30 | 6.19 | 
O=C(CN1CCC[C@@H]1C(O)(c1ccccc1)c1ccccc1)Nc1ccc(C(=O)c2ccccc2)cc1 [Compound 82, N-(4-Benzoyl-phenyl)-2-[2R-(hydroxy-diphenyl-methyl)-pyrrolidin-1-yl]-acetamide] | < 5.30 | < 5.30 | 
O=C(CN1CCC(N2CCCCC2)CC1)Nc1ccc(C2CCCCC2)cc1 [Compound 24, 2-[1,4′]Bipiperidinyl-1′-yl-N-(4-cyclohexyl-phenyl)-acetamide] | < 5.30 | 5.54 | 
O=C(CN1CCC[C@H]1CO)Nc1ccc(C2CCCCC2)cc1 [Compound 84, N-(4-Cyclohexyl-phenyl)-2-(2S-hydroxymethyl-pyrrolidin-1-yl)-acetamide] | < 5.30 | 6.03 | 
O=C(CN1CCCC1CO)Nc1ccc(C(=O)c2ccccc2)cc1 (centres unmarked) [Compound 118, N-(4-Benzoyl-phenyl)-2-(2-hydroxymethyl-pyrrolidin-1-yl)-acetamide] | < 5.30 | 5.70 | 
